Columns and labels:
[1] = molecular target: GABAA receptors comprising α4 and δ subunits (Homo sapiens, UniProt O14764+P28472+P48169); conditions: Brown et al, British J. Pharmacol., 136, 965-74 (2002); cited from earlier work
[2] = relative thermodynamic stability of crystalline forms; assay type: physicochemical; conditions: comparison of form II with form I of the same hydration state
Protocol: (§1) (The anhydrate of form I reverts to the monohydrate at 25° C./70% RH, while the anhydrate of form II reverts to the monohydrate at 25° C./90% RH).

[3] = reversion of anhydrate to monohydrate under humidity; assay type: physicochemical; conditions: 25° C.
Protocol: as §1

[4] = thermal decomposition studies; assay type: physicochemical; conditions: based on thermal decomposition studies; monohydrate form II vs anhydrous form II

Sequence of GABAA receptors comprising α4 and δ subunits (P48169 36-554): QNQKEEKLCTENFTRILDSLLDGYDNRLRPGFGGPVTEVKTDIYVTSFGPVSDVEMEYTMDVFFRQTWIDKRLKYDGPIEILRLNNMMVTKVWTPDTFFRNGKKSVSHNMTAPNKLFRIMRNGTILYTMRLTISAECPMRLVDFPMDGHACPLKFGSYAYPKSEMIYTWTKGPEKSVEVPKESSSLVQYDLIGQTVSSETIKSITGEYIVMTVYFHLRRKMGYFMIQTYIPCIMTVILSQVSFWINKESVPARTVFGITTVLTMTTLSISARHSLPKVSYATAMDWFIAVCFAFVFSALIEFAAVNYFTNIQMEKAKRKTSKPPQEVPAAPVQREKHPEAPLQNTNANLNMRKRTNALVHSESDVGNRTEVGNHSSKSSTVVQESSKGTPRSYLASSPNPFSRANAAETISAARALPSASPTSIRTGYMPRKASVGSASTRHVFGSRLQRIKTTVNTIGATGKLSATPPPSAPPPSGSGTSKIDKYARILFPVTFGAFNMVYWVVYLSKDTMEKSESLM
Sequence of GABAA receptors comprising α4 and δ subunits (O14764 25-452): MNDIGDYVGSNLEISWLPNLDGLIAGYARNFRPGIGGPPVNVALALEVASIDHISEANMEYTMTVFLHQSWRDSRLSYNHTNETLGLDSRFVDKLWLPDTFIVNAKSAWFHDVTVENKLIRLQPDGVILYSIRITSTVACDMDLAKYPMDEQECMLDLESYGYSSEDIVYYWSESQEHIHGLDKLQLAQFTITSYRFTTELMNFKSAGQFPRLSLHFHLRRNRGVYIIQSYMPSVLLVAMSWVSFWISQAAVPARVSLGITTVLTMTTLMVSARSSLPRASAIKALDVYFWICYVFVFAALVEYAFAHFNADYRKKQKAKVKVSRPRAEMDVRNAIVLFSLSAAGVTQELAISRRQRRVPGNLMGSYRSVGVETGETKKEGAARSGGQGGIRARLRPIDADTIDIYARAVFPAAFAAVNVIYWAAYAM
Sequence of GABAA receptors comprising α4 and δ subunits (P28472 26-473): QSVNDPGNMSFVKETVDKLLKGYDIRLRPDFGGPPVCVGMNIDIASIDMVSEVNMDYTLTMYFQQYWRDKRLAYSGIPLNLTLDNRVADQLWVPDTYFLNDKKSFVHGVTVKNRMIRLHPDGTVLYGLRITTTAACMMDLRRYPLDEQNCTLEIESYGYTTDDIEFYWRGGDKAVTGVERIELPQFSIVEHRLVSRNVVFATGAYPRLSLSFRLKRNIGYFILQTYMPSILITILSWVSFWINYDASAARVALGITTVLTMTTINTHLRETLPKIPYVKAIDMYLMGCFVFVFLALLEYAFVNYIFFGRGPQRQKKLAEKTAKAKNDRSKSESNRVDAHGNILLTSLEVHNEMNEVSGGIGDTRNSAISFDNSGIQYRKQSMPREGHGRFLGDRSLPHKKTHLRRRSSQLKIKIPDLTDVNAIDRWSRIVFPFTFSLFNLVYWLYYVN

SMILES: Oc1noc2c1CCNC2 [gaboxadol, 4,5,6,7-tetrahydroisoxazolo[5,4-c]pyridin-3-ol]
- agonist potency [1]: particularly potent agonist

SMILES: Oc1noc2c1CCNC2 [anhydrate of form II, 4,5,6,7-tetrahydroisoxazolo[5,4-c]pyridin-3-ol]
- thermodynamic stability relative to the other polymorph ([2]; listed as gaboxadol anhydrate of form II): more stable than the anhydrate of form I
- relative humidity at which the anhydrate reverts to the monohydrate [3]: 90 % RH

SMILES: Oc1noc2c1CCNC2 [anhydrate of form I, 4,5,6,7-tetrahydroisoxazolo[5,4-c]pyridin-3-ol]
- relative humidity at which the anhydrate reverts to the monohydrate [3]: 70 % RH

SMILES: Oc1noc2c1CCNC2 [Gaboxadol monohydrate of form II, 4,5,6,7-tetrahydroisoxazolo[5,4-c]pyridin-3-ol]
- thermodynamic stability relative to the other polymorph [2]: thermodynamically more stable than the monohydrate of form I
- thermal profile [4]: safer thermal profile than the anhydrous form II
